Results on 12 compounds are retold here after PubChem BioAssay AID248 (DTP/NCI, 2004).

This experiment has as its system L1210 leukemia ip in BDF1 mice, survival T/C. Briefly: NCI In Vivo Anticancer Drug Screen. Data for tumor model L1210 Leukemia (intraperitoneal) in B6D2F1 (BDF1) mice. The note with it: higher = longer survival. The gist of the method:
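Survival endpoint. Drug-treated group vs vehicle group, expressed as T divided by C. Tumor passaged by transplantation.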

The mark [1] stands for this setting: endpoint: mean survival time, dose: 100.0 mg/kg/injection, schedule: Q04DX002 (ip), vehicle: Klucel (hydroxypropylcellulose) (HPC).
Setting [2] is: endpoint: mean survival time, dose: 200.0 mg/kg/injection, schedule: Q04DX002 (ip), vehicle: Klucel (hydroxypropylcellulose) (HPC).
[3] abbreviates: endpoint: mean survival time, dose: 400.0 mg/kg/injection, schedule: Q04DX002 (ip), vehicle: Klucel (hydroxypropylcellulose) (HPC).
Setting [4] is: endpoint: mean survival time, dose: 400.0 mg/kg/injection, schedule: Q01DX009 (ip), vehicle: Klucel (hydroxypropylcellulose) (HPC).

The structures appear in SMILES notation. Where “and” joins values, the source holds several entries; their conditions need not be identical. Identical values can stand only once. Toxic doses and inconclusive results are not listed.

Regarding `Oc1cccc(Nc2ccccc2)c1`, the T/C is 106 % of control under setting [1], 95 % of control under setting [2] and 95 % of control under setting [3].

`c1ccc(C2OCCCO2)cc1`: the T/C (endpoint: mean survival time, dose: 12.5 mg/kg/injection, schedule: Q01DX009 (ip), vehicle: Klucel (hydroxypropylcellulose) (HPC)) is 92 % of control; the T/C (endpoint: mean survival time, dose: 25.0 mg/kg/injection, schedule: Q01DX009 (ip), vehicle: Klucel (hydroxypropylcellulose) (HPC)) was 100 % of control; the T/C under setting [4] is 87 % of control.

`CCOC(=O)c1ccc(N(CC(S)CNc2cc(C)nc(N)n2)S(=O)(=O)c2ccc(C)cc2)cc1` (stereo unspecified): the T/C (endpoint: mean survival time, dose: 25.0 mg/kg/injection, schedule: Q01DX001 (ip), vehicle: saline) is 95 % of control and the T/C (endpoint: mean survival time, dose: 50.0 mg/kg/injection, schedule: Q01DX001 (ip), vehicle: saline) was 90 % of control.

In the case of `Cc1cc(=O)[nH]c(N2C(=O)c3ccccc3C2=O)n1`, the T/C is 99 % of control (endpoint: mean survival time, dose: 25.0 mg/kg/injection, schedule: Q04DX003 (ip), vehicle: Klucel (hydroxypropylcellulose) (HPC)) and 102 % of control (endpoint: mean survival time, dose: 50.0 mg/kg/injection, schedule: Q04DX003 (ip), vehicle: Klucel (hydroxypropylcellulose) (HPC)).

Turning to `Cc1cccc(NC(=O)Nc2ccccc2F)n1`, the T/C is, setting by setting: (endpoint: mean survival time, dose: 100.0 mg/kg/injection, schedule: Q01DX001 (ip), vehicle: Klucel (hydroxypropylcellulose) (HPC)) 96 % of control; (endpoint: mean survival time, dose: 100.0 mg/kg/injection, schedule: Q01DX009 (ip), vehicle: Klucel (hydroxypropylcellulose) (HPC)) 96 % of control; under setting [1], 94 % of control and 87 % of control; (endpoint: mean survival time, dose: 100.0 mg/kg/injection, schedule: Q04DX003 (ip), vehicle: Klucel (hydroxypropylcellulose) (HPC)) 99 % of control; (endpoint: mean survival time, dose: 200.0 mg/kg/injection, schedule: Q01DX001 (ip), vehicle: Klucel (hydroxypropylcellulose) (HPC)) 91 % of control; (endpoint: mean survival time, dose: 200.0 mg/kg/injection, schedule: Q01DX009 (ip), vehicle: Klucel (hydroxypropylcellulose) (HPC)) 96 % of control and 88 % of control. Further, the T/C is, setting by setting: under setting [2], 96 % of control and 91 % of control; (endpoint: mean survival time, dose: 200.0 mg/kg/injection, schedule: Q04DX003 (ip), vehicle: Klucel (hydroxypropylcellulose) (HPC)) 111 % of control; under setting [4], 105 % of control and 88 % of control; under setting [3], 87 % of control and 91 % of control; (endpoint: mean survival time, dose: 400.0 mg/kg/injection, schedule: Q04DX003 (ip), vehicle: Klucel (hydroxypropylcellulose) (HPC)) 97 % of control.

`CC[N+](C)(CC)CCNC(=O)Nc1ccc(C)c(NC(=O)NCC[N+](C)(CC)CC)c1`: the T/C is 97 % of control (endpoint: mean survival time, dose: 1.56 mg/kg/injection, schedule: Q01DX009 (ip), vehicle: saline); 95 % of control (endpoint: mean survival time, dose: 3.12 mg/kg/injection, schedule: Q01DX009 (ip), vehicle: saline); 90 % of control (endpoint: mean survival time, dose: 3.12 mg/kg/injection, schedule: Q04DX002 (ip), vehicle: saline).

For `C=CCSc1ccc([N+](=O)[O-])cc1`, the T/C reads like this: (endpoint: mean survival time, dose: 50.0 mg/kg/injection, schedule: Q01DX001 (ip), vehicle: carboxymethylcellulose (CMC)) 101 % of control; (endpoint: mean survival time, dose: 100.0 mg/kg/injection, schedule: Q01DX001 (ip), vehicle: carboxymethylcellulose (CMC)) 95 % of control; (endpoint: mean survival time, dose: 200.0 mg/kg/injection, schedule: Q01DX001 (ip), vehicle: carboxymethylcellulose (CMC)) 104 % of control; (endpoint: mean survival time, dose: 400.0 mg/kg/injection, schedule: Q01DX001 (ip), vehicle: carboxymethylcellulose (CMC)) 98 % of control.

`Cc1ccc(S(=O)(=O)N/N=C2\C(=O)C3CCC2C3Cl)cc1` (stereo unspecified): the T/C (endpoint: mean survival time, dose: 75.0 mg/kg/injection, schedule: Q01DX001 (ip), vehicle: other) is 89 % of control and the T/C (endpoint: mean survival time, dose: 150.0 mg/kg/injection, schedule: Q01DX001 (ip), vehicle: other) was 92 % of control.

For `CC(=O)c1ccc[n+](Cc2ccc([N+](=O)[O-])cc2)c1`, the T/C (endpoint: mean survival time, dose: 100.0 mg/kg/injection, schedule: Q04DX003 (ip), vehicle: saline sonified) is 98 % of control.

For the compound `NC(=O)NCN1C(=O)c2ccccc2C1=O`, the T/C under setting [1] is 100 % of control, the T/C under setting [2] was 94 % of control and the T/C under setting [3] was 90 % of control.

Consider `Cn1c(N)nc2nc[nH]c2c1=S`, for which the T/C (endpoint: mean survival time, dose: 0.25 mg/kg/injection, schedule: Q01DX Z (ip), vehicle: carboxymethylcellulose (CMC)) is 104 % of control; the T/C (endpoint: mean survival time, dose: 0.5 mg/kg/injection, schedule: Q01DX Z (ip), vehicle: carboxymethylcellulose (CMC)) is 101 % of control; the T/C (endpoint: mean survival time, dose: 1.0 mg/kg/injection, schedule: Q01DX Z (ip), vehicle: carboxymethylcellulose (CMC)) was 104 % of control; the T/C (endpoint: mean survival time, dose: 2.0 mg/kg/injection, schedule: Q01DX015 (ip), vehicle: carboxymethylcellulose (CMC)) is 103 % of control; the T/C (endpoint: mean survival time, dose: 2.0 mg/kg/injection, schedule: Q01DX Z (ip), vehicle: carboxymethylcellulose (CMC)) is 107 % of control; the T/C (endpoint: mean survival time, dose: 2.5 mg/kg/injection, schedule: Q01DX010 (ip), vehicle: saline) is 95 % of control and 91 % of control. The T/C reads like this: (endpoint: mean survival time, dose: 2.7 mg/kg/injection, schedule: Q01DX Z (ip), vehicle: methylcellulose (MC)) 159 % of control; (endpoint: mean survival time, dose: 4.0 mg/kg/injection, schedule: Q01DX015 (ip), vehicle: carboxymethylcellulose (CMC)) 92 % of control; (endpoint: mean survival time, dose: 4.0 mg/kg/injection, schedule: Q01DX Z (ip), vehicle: carboxymethylcellulose (CMC)) 97 % of control and 106 % of control; (endpoint: mean survival time, dose: 4.0 mg/kg/injection, schedule: Q01DX Z (ip), vehicle: methylcellulose (MC)) 150 % of control; (endpoint: mean survival time, dose: 5.0 mg/kg/injection, schedule: Q01DX009 (ip), vehicle: saline) 101 % of control and 106 % of control; (endpoint: mean survival time, dose: 5.0 mg/kg/injection, schedule: Q01DX010 (ip), vehicle: saline) 97 % of control and 101 % of control. Further, the T/C runs as follows: (endpoint: mean survival time, dose: 6.0 mg/kg/injection, schedule: Q01DX Z (ip), vehicle: methylcellulose (MC)) 123 % of control; (endpoint: mean survival time, dose: 8.0 mg/kg/injection, schedule: Q01DX015 (ip), vehicle: carboxymethylcellulose (CMC)) 107 % of control; (endpoint: mean survival time, dose: 8.0 mg/kg/injection, schedule: Q01DX Z (ip), vehicle: carboxymethylcellulose (CMC)) 118 % of control; (endpoint: mean survival time, dose: 10.0 mg/kg/injection, schedule: Q01DX009 (ip), vehicle: saline) 101 % of control and 104 % of control; (endpoint: mean survival time, dose: 10.0 mg/kg/injection, schedule: Q01DX010 (ip), vehicle: saline) 100 % of control and 91 % of control; (endpoint: mean survival time, dose: 16.0 mg/kg/injection, schedule: Q01DX015 (ip), vehicle: carboxymethylcellulose (CMC)) 104 % of control and 116 % of control. The T/C by setting is: (endpoint: mean survival time, dose: 16.0 mg/kg/injection, schedule: Q01DX Z (ip), vehicle: carboxymethylcellulose (CMC)) 110 % of control; (endpoint: mean survival time, dose: 20.0 mg/kg/injection, schedule: Q01DX009 (ip), vehicle: saline) 106 % of control and 113 % of control; (endpoint: mean survival time, dose: 20.0 mg/kg/injection, schedule: Q01DX010 (ip), vehicle: saline) 94 % of control and 95 % of control and 116 % of control; (endpoint: mean survival time, dose: 32.0 mg/kg/injection, schedule: Q01DX015 (ip), vehicle: carboxymethylcellulose (CMC)) 123 % of control; (endpoint: mean survival time, dose: 40.0 mg/kg/injection, schedule: Q01DX009 (ip), vehicle: saline) 119 % of control; (endpoint: mean survival time, dose: 40.0 mg/kg/injection, schedule: Q01DX010 (ip), vehicle: saline) 97 % of control. For the same compound, the T/C by setting is: (endpoint: mean survival time, dose: 64.0 mg/kg/injection, schedule: Q01DX010 (iv), vehicle: saline) 102 % of control; (endpoint: mean survival time, dose: 64.0 mg/kg/injection, schedule: Q01DX015 (ip), vehicle: carboxymethylcellulose (CMC)) 123 % of control; (endpoint: mean survival time, dose: 80.0 mg/kg/injection, schedule: Q01DX010 (ip), vehicle: saline) 97 % of control; (endpoint: mean survival time, dose: 128.0 mg/kg/injection, schedule: Q01DX010 (iv), vehicle: saline) 100 % of control; (endpoint: mean survival time, dose: 128.0 mg/kg/injection, schedule: Q01DX015 (ip), vehicle: carboxymethylcellulose (CMC)) 115 % of control; (endpoint: mean survival time, dose: 256.0 mg/kg/injection, schedule: Q01DX010 (iv), vehicle: saline) 108 % of control. Also, the T/C (endpoint: median survival time, dose: 5.0 mg/kg/injection, schedule: Q01DX009 (ip), vehicle: saline) is 105 % of control and 106 % of control; the T/C (endpoint: median survival time, dose: 10.0 mg/kg/injection, schedule: Q01DX009 (ip), vehicle: saline) is 110 % of control; the T/C (endpoint: median survival time, dose: 20.0 mg/kg/injection, schedule: Q01DX009 (ip), vehicle: saline) is 110 % of control and 112 % of control; the T/C (endpoint: median survival time, dose: 40.0 mg/kg/injection, schedule: Q01DX009 (ip), vehicle: saline) is 120 % of control.

In the case of `COc1ccc(-n2c(=O)c(N=Nc3ccc(Br)cc3)c(O)n(-c3ccc(Cl)cc3)c2=S)cc1`, the T/C reads like this: (endpoint: mean survival time, dose: 37.5 mg/kg/injection, schedule: Q01DX001 (ip), vehicle: Klucel (hydroxypropylcellulose) (HPC)) 102 % of control; (endpoint: mean survival time, dose: 75.0 mg/kg/injection, schedule: Q01DX001 (ip), vehicle: Klucel (hydroxypropylcellulose) (HPC)) 101 % of control; (endpoint: mean survival time, dose: 150.0 mg/kg/injection, schedule: Q01DX001 (ip), vehicle: Klucel (hydroxypropylcellulose) (HPC)) 104 % of control.
